Assay: Solubility in di(tridecyl) adipate ester base stock (Esterex A51)
Format: physicochemical
Details: Group V ester base stock
Description: The ionic liquids of Examples 5, 7, 9, 11 and 13 have good viscosity index.

| SMILES | solubility in di(tridecyl) adipate ester base stocks |
| --- | --- |
| CCCCCCCCCCn1cc[n+](C)c1 [Example 5, 1-methyl-3-decylimidazolium bis(trifluoromethanesulfonyl)imide] | highly soluble |
| CCCCCCCCCCCCCCCCn1cc[n+](C)c1 [Example 7, 1-methyl-3-hexadecylimidazolium bis(trifluoromethanesulfonyl)imide] | highly soluble |
| CCCCCCCCCC[n+]1ccn(CCCC)c1 [Example 9, 1-butyl-3-decylimidazolium bis(trifluoromethanesulfonyl)imide] | highly soluble |

Continued, values first:

| solubility in di(tridecyl) adipate ester base stocks | SMILES |
| --- | --- |
| highly soluble | CCCCCCCCCCCCCCCC[n+]1ccn(CCCC)c1 [Example 11, 1-butyl-3-hexadecylimidazolium bis(trifluoromethanesulfonyl)imide] |
| highly soluble | CCCCCCCCCC[n+]1ccn(Cc2ccccc2)c1 [Example 13, 1-benzyl-3-decylimidazolium bis(trifluoromethanesulfonyl)imide] |

From patent US20150045266A1, “IONIC LIQUID AS LUBRICATING OIL BASE STOCKS, COBASE STOCKS AND MULTIFUNCTIONAL FUNCTIONAL FLUIDS” (ExxonMobil Research and Engineering Company, priority 2012, published 2015)
